Assay results taken from patent publication US7863307B2, “Process for synthesizing a CETP inhibitor” (priority 2005, dated 2011).
“Also recorded” adds a separate entry of the source.

Experiments:
Type in all cases: physicochemical
[1] = solubility in water / aqueous environments
[2] = solid-form stability on standing (conversion to other forms); settings: crystalline non-solvate form
[3] = hygroscopicity of the crystalline non-solvate form in humid or dry air

## COc1cc(F)c(C(C)C)cc1-c1ccc(C(F)(F)F)cc1CN1C(=O)O[C@H](c2cc(C(F)(F)F)cc(C(F)(F)F)c2)[C@@H]1C [compound 12, (4S,5R)-5-[3,5-bis(trifluoromethyl)phenyl]-3-{[4′-fluoro-5′-isopropyl-2′-methoxy-4-(trifluoromethyl)biphenyl-2-yl]methyl}-4-methyl-1,3-oxazolidin-2-one]
[1]
  solubility in water: very poorly soluble in water
[2]; elevated temperatures
  conversion of crystal form on standing: converts more rapidly to the amorphous form at elevated temperatures
[2]; room temperature
  conversion of crystal form on standing: slowly converts to the amorphous form on standing for long periods of time; also recorded: stable at room temperature for moderate periods of time with respect to changing to the amorphous form
[3]
  hydrate formation: does not convert to a hydrate in humid or dry air
  hygroscopicity: non-hygroscopic
